{"source": "patent US20220054425A1", "about": "“NANOCAPSULES COATED WITH CHITOSAN AND USE THEREOF” (SKINMED CO., LTD., priority 2018, published 2022)", "assay": "Skin permeability, Franz diffusion cell system", "format": "in vitro ADME", "details": "human cadaver skin, fluorescence, up to 24 hours", "source_text": "In a Franz diffusion cell system, a formulation including a drug is applied to a donor chamber while a receptor chamber is filled with physiological saline such as PBS (phosphate buffered saline), with a permeable layer, such as a permeable membrane, animal skin or cell culture skin, fixed between the donor chamber and the receptor chamber. Skin permeability can be determined by measuring the amount of the drug diffusing from the donor chamber to the receptor chamber.\nIn a Franz diffusion cell system, 5 ml of PBS (pH 7.4 containing 0.05% polysorbate 80) was added to the receptor chamber, a human cadaver skin with a size of 1.5×1.5 cm was fixed between the receptor chamber and the donor chamber, and each sample was placed in a donor chamber. The conditions of 37° C. and 600 rpm were set in the receptor chamber and 500 μl of the sample was recovered each time at sample times of 0.5, 1, 2, 4, 8, 12, 18, and 24 hours. The drug passing through the skin was quantitated according to time by HPLC. The result is depicted in FIG. 18.\nTo a donor chamber, chitosan-coated nanocapsules containing 2 wt % of Nile red (Nile red@ChiNC) were added in an amount of 2 mg/ml. As a control, Nile red alone, or Nile red-containing nanocapsules without a chitosan coating (Nile red@PluNC) were employed. […] Fluorescence in the samples taken at the predetermined times was measured. […]", "data": [{"smiles": "CCN(CC)c1ccc2nc3c4ccccc4c(=O)cc-3oc2c1", "note": "[Nile red]", "values": [{"measurement": "skin permeability of Nile red", "value": "almost did not penetrate into the skin"}]}]}
